“Also recorded” adds a separate entry of the source.
What was measured:
[1] = system: patients with pre-existing gas exchange problems; test: Ventilation-perfusion matching by multiple inert gas elimination technique (MIGET)
Method: The impact of SMI-TRE on ventilation-perfusion matching was assessed in five patients (30 μg TRE, n=2; 45 μg TRE, n=1; 60 μg TRE, n=2) with pre-existing gas exchange problems by use of the multiple inert gas elimination technique (MIGET), see e.g. Wagner PD, Saltzman HA, West JB. Measurement of continuous distributions of ventilation-perfusion ratios: theory. J Appl Physiol. 1974; 36:588-99; Ghofrani HA, Wiedemann R, Rose F, Schermuly RT, Olschewski H, Weissmann N et al. Sildenafil for treatment of lung fibrosis and pulmonary hypertension: a randomised controlled trial. Lancet. 2002; 360:895-900, both incorporated herein in their entirety.
The inhalation of a highly concentrated aerosol can be in theory prone to disturbances of gas exchange because the deposition of even small amounts of aerosol may deliver high doses locally and thereby antagonize the hypoxic pulmonary vasoconstriction in poorly ventilated areas. This would then lead to increased shunt flow or increase of low ventilation/perfusion (V/Q) areas. This question was addressed in five patients with the multiple inert gas elimination technique (MIGET), the gold-standard for intrapulmonary V/Q ratio determination. The MIGET patients were selected for pre-existing gas exchange limitations. […] Etiologies were iPAH (n=1), CTEPH (n=3), pulmonary fibrosis (n=1).

[2] = system: patients with moderate to severe precapillary pulmonary hypertension; test: Study i) randomized crossover study of inhaled treprostinil vs inhaled iloprost, right heart catheter; format: in vivo, human; details: for area under the curve (AUC) of PVR decrease: mean±95% confidence interval
Method: All inhalations were performed with the […]® ultrasonic nebulizer ([…], Germany). Study i) was a randomized, open-label, single-blind crossover study. […] Patient characteristics and hemodynamic as well as gas exchange parameters are outlined in Table 3. Each patient inhaled both iloprost and treprostinil on the same day during right heart catheter investigation; the drugs were administered consecutively with a one hour interval between the drug applications. One half of the study patients initially inhaled treprostinil and then inhaled iloprost (n=22), while the other half initially inhaled iloprost and then inhaled treprostinil (n=22). Patients were randomized to one of the two groups and blinded as to the study drugs. Drug effects were monitored for 60 minutes after each inhalation.

[3] = Treprostinil plasma concentrations after single inhalation (study ii), LC-MS/MS; details: for Cmax: human, plasma, inhaled
Method: Treprostinil plasma concentrations were assessed in study ii) at 10, 15, 30, 60 and 120 minutes after inhalation. Treprostinil quantification was done by Alta Analytical Laboratory (El Dorado Hills, Calif., USA) with a validated liquid chromatography atmospheric-pressure ionization tandem mass spectrometry as previously described Wade M., et al. J. Clin. Pharmacol. 2004; 44:503-9. Mixed venous blood was drawn at the depicted time points (FIG. 11) after inhalation, centrifuged and the plasma frozen at −80° C. until temperature controlled shipping on dry ice.

[4] = Aerosol quality by laser diffractometry (Respimat SMI); format: physicochemical; details: treprostinil-aerosol from Respimat SMI
Source text: Placebo and treprostinil was applied with the Respimat® SMI. […] Eur. Respir.

[5] = system: patients with severe pulmonary hypertension; test: Study ii) placebo controlled dose escalation study of inhaled treprostinil, hemodynamics and tolerability; details: for maximal decrease of PVR to: 6 min inhalation
Method: Study ii) was a randomized, open-label, single blind, placebo controlled study. […] A total number of 31 patients inhaled either placebo or treprostinil; each patient received one inhalation. […] Inhalation time was 6 minutes in all groups.

[6] = metacresol-containing TRE solution

CCCCC[C@H](O)CC[C@@H]1[C@H]2Cc3cccc(OCC(=O)[O-])c3C[C@H]2C[C@H]1O.[Na+] [TRE]
shunt flow ([1]; 60 minutes after SMI-TRE, mean±95% confidence interval, n=5): 8.3±3.4%
low V/Q areas or shunt fraction ([1]; after inhalation of SMI-TRE, n=5): No significant increase
maximal relative reduction of SaO2 ([1]; five MIGET patients, compared to baseline values): −3.8±1.5%
area under the curve (AUC) of PVR decrease ([2]; 7.5 μg inhaled in 6 minutes, start of inhalation until 60 min): −12.6±7.0%
area under the curve (AUC) of PVR decrease ([2]; 15 μg inhaled in 6 minutes, until 60 min): −13.3±3.2%
area under the curve (AUC) of PVR decrease ([2]; 15 TRE inhaled in 3 minutes, until 60 min): −13.6±4.3%
PVR values after 60 min ([2]; 60 min after inhalation): had not yet returned to baseline
gas exchange ([2]; after inhalation): did not affect gas exchange
systemic arterial pressure (SAP) ([2]; after inhalation): unaffected
side effects (transient flush, headache) ([2]; iloprost 7.5 μg, treprostinil 7.5-15 μg): not observed
maximum effect on PVR ([2]; iloprost vs treprostinil, pooled): comparable
taste [2, 6]: Bad taste was reported by most of the patients
time to maximum effect on PVR after inhalation ([2]; pooled n=44, mean±SEM, p<0.0001): 18 ± 2 min
time of peak plasma concentrations after inhalation ([3]; 30-120 μg, 6 min inhalation): 10 to 15 min
Cmax ([3]; 30 ug): 0.65 ± 0.28 ng/mL
Cmax ([3]; 60 ug): 1.59 ± 0.17 ng/mL
Cmax ([3]; 90 ug): 1.74 ng/mL
Cmax ([3]; 120 ug): 3.51 ± 1.04 ng/mL
aerosol particles mass median aerodynamic diameter [4]: 4 to 5 µm
cardiac output increased to a maximum of ([5]; 30 μg): 106.8±3.2%
side effects ([5]; 30 μg TRE, n=1 each): flushing; also recorded: mild transient bronchoconstriction
duration of hemodynamic changes ([5]; 30 μg dose group, 3 hour observation period): had just returned to baseline within this period
maximal decrease of PVR to ([5]; 30 μg, n=8): 76.5±4.7 % of baseline values
cardiac output increased to a maximum of ([5]; 60 μg): 122.9±4.3%
side effects ([5]; 60 μg TRE, n=3): mild transient cough
duration of pulmonary vasodilation ([5]; 60 μg and 90 μg (and 120 μg) TRE doses, surpassing observation period): > 3 h
maximal decrease of PVR to ([5]; 60 μg, n=6): 73.7±5.8 % of baseline values
cardiac output increased to a maximum of ([5]; 90 μg): 114.3±4.8%
maximal decrease of PVR to ([5]; 90 μg, n=6): 73.3±4.3 % of baseline values
cardiac output increased to a maximum of ([5]; 120 μg TRE): 111.3±3.9%
arterial oxygen saturation ([5]; 120 μg TRE, all 3 patients): significantly decreased
side effects ([5]; 120 μg TRE, n=1 each): moderate bronchoconstriction; also recorded: severe headache
maximal decrease of PVR to ([5]; 120 μg, n=3): 65.4±4.1 % of baseline values
gas exchange ([5]; doses up to 90 μg TRE): not affected
effects on systemic arterial pressure ([5]; even at the highest doses): only minor effects
taste of the aerosol [5, 6]: bad taste of the TRE aerosol was reported by most patients
tolerated inhaled dose ([5]; single inhalation): up to 90 μg

Reference: US11357782B2, “Treprostinil administration by inhalation” (priority 2006, dated 2022)
